Reference: US11247990B1, “Bicyclic fused pyridine compounds as inhibitors of TAM kinases” (ARRAY BIOPHARMA INC., priority 2017, dated 2022)

Target: GST-tagged recombinant human TYRO3 kinase domain (Homo sapiens (Human), UniProt Q06418)
Test: TYRO3 Enzyme Assay (LanthaScreen Eu Kinase Binding, TR-FRET)
Details: averaged IC50
Procedure: Compounds of Formula I were screened for their ability to inhibit TYRO3 kinase using Invitrogen's LanthaScreen™ Eu Kinase Binding technology. […] After a 60-minute incubation at 22° C., the reaction was measured using a PerkinElmer EnVision multimode plate reader via TR-FRET dual wavelength detection, and the percent of control (POC) calculated using a ratiometric emission factor. […] The POC values were fit to a 4 parameter logistic curve and the IC50 value is point where the curve crosses 50 POC.

Chain of GST-tagged recombinant human TYRO3 kinase domain (Q06418 518-790): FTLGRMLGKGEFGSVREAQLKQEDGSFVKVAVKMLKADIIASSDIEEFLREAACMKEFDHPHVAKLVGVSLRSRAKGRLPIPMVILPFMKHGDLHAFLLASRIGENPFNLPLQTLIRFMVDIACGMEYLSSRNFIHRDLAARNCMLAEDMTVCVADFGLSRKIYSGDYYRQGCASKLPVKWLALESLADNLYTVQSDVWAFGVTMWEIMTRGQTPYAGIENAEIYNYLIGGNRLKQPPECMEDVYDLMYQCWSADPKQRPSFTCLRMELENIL

Compound	IC50 [nM]
CNc1cc2c(cn1)c(-c1cnc(N3CCOCC3)nc1)nn2[C@H]1CC[C@@H](Oc2ccc(=O)n(C)n2)CC1 [Example 51, 2-methyl-6-(((1s,4s)-4-(6-(methylamino)-3-(2-morpholinopyrimidin-5-yl)-1H-pyrazolo[4,3-c]pyridin-1-yl)cyclohexyl)oxy)pyridazin-3(2H)-one]	1000 to 10000
CCNc1cc2c(cn1)c(-c1cnn(C(C)(C)C#N)c1)nn2[C@H]1CC[C@@H](Oc2ccc(=O)n(CC)n2)CC1 [Example 57, 2-(4-(1-((1s,4s)-4-((1-ethyl-6-oxo-1,6-dihydropyridazin-3-yl)oxy)cyclohexyl)-6-(ethylamino)-1H-pyrazolo[4,3-c]pyridin-3-yl)-1H-pyrazol-1-yl)-2-methylpropanenitrile]	1000 to 10000
CCNc1cc2c(cn1)c(-c1ccc(CN3CC(F)C3)cc1)nn2[C@H]1CC[C@@H](Oc2ccc(=O)n(C)n2)CC1 [Example 62, 6-(((1s,4s)-4-(6-(ethylamino)-3-(4-((3-fluoroazetidin-1-yl)methyl)phenyl)-1H-pyrazolo[4,3-c]pyridin-1-yl)cyclohexyl)oxy)-2-methylpyridazin-3(2H)-one]	1000 to 10000
CNc1cc2c(cn1)c(-c1ccn(C)n1)cn2[C@H]1CC[C@@H](Oc2ccc(=O)n(C)n2)CC1 [Example 74, 2-methyl-6-(((1s,4s)-4-(3-(1-methyl-1H-pyrazol-3-yl)-6-(methylamino)-1H-pyrrolo[3,2-c]pyridin-1-yl)cyclohexyl)oxy)pyridazin-3(2H)-one]	1000 to 10000
CNc1cc2c(cn1)c(-c1ccc(F)cc1)nn2[C@H]1CC[C@@H](Oc2ccccn2)CC1 [Example 118, 3-(4-fluorophenyl)-N-methyl-1-((1s,4s)-4-(pyridin-2-yloxy)cyclohexyl)-1H-pyrazolo[4,3-c]pyridin-6-amine]	1000 to 10000

Further lines, results first:

IC50 [nM]	Compound
1000 to 10000	CNc1cc2c(cn1)c(-c1cnn(C)c1)nn2[C@H]1CC[C@@H](Oc2ccc(=O)n(CCN(C)C)n2)CC1 [Example 18, 2-(2-(dimethylamino)ethyl)-6-(((1s,4s)-4-(3-(1-methyl-1H-pyrazol-4-yl)-6-(methylamino)-1H-pyrazolo[4,3-c]pyridin-1-yl)cyclohexyl)oxy)pyridazin-3(2H)-one]
1000 to 10000	CNc1cc2c(cn1)c(-c1cnn(C)c1)nn2[C@H]1CC[C@@H](Oc2ccc(=O)n(Cc3ccc(OC)cc3)n2)CC1 [Example 20, 2-(4-methoxybenzyl)-6-(((1s,4s)-4-(3-(1-methyl-1H-pyrazol-4-yl)-6-(methylamino)-1H-pyrazolo[4,3-c]pyridin-1-yl)cyclohexyl)oxy)pyridazin-3(2H)-one]
1000 to 10000	CNc1cc2c(cn1)c(-c1cnn(C)c1)nn2[C@H]1CC[C@@H](Oc2ccc(=O)[nH]n2)CC1 [Example 21, 6-(((1s,4s)-4-(3-(1-methyl-1H-pyrazol-4-yl)-6-(methylamino)-1H-pyrazolo[4,3-c]pyridin-1-yl)cyclohexyl)oxy)pyridazin-3(2H)-one]
< 10	CNc1cc2c(cn1)c(-c1cnn(C)c1)nn2[C@H]1CC[C@@H](Oc2ccn(C)c(=O)c2)CC1 [Example 24, 1-methyl-4-(((1s,4s)-4-(3-(1-methyl-1H-pyrazol-4-yl)-6-(methylamino)-1H-pyrazolo[4,3-c]pyridin-1-yl)cyclohexyl)oxy)pyridin-2(1H)-one]
1000 to 10000	CNc1cc2c(cn1)c(-c1cncc(C(F)(F)F)c1)nn2[C@H]1CC[C@@H](Oc2ccc(=O)n(C)n2)CC1 [Example 52, 2-methyl-6-(((1s,4s)-4-(6-(methylamino)-3-(5-(trifluoromethyl)pyridin-3-yl)-1H-pyrazolo[4,3-c]pyridin-1-yl)cyclohexyl)oxy)pyridazin-3(2H)-one]
< 10	Cn1cc(-c2nn([C@H]3CC[C@@H](Oc4ccc(=O)n(C)n4)CC3)c3cc(Nc4cccc(F)c4)ncc23)cn1 [Example 66]
1000 to 10000	CNc1cc2c(cn1)c(-c1cnn(C)c1)nn2[C@H]1CC[C@@H](Oc2cc(=O)cnn2C)CC1 [Example 114, 1-methyl-6-(((1s,4s)-4-(3-(1-methyl-1H-pyrazol-4-yl)-6-(methylamino)-1H-pyrazolo[4,3-c]pyridin-1-yl)cyclohexyl)oxy)pyridazin-4(1H)-one]
